Experimental data published in ChEMBL document CHEMBL1201862, “PubChem BioAssay data set” (2004).
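Briefly, cells in 96-well plates were exposed to five compound concentrations for 48 h, and endpoints were estimated by linear interpolation. GI50 = concentration required for 50% inhibition of growth.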 Calls of active or inactive are those of the source. Rule as the data show it: active = GI50 up to about 1.1 µM and inactive = higher.

How the values were obtained:
Test in all cases: NCI-60 cell line screen, 48 h
[1] = tested on: TK-10
[2] = tested on: UACC-62
[3] = tested on: EKVX
[4] = tested on: LXFL 529
[5] = tested on: IGROV-1
[6] = tested on: COLO 205
[7] = tested on: SNB-78
[8] = tested on: SF-295
[9] = tested on: HL-60
[10] = tested on: K562
[11] = tested on: SF-268
[12] = tested on: M14
[13] = tested on: XF498
[14] = tested on: SW-620
[15] = tested on: SNB-19
[16] = tested on: SK-OV-3
[17] = tested on: OVCAR-8
[18] = tested on: RXF 393
[19] = tested on: HT-29
[20] = tested on: HCT-116
[21] = tested on: U-251
[22] = tested on: SK-MEL-5
[23] = tested on: 786-0
[24] = tested on: MOLT-4
[25] = tested on: SK-MEL-28
[26] = tested on: SNB-75
[27] = tested on: A549
[28] = tested on: OVCAR-4
[29] = tested on: NCI-H226
[30] = tested on: HCC 2998
[31] = tested on: HOP-62
[32] = tested on: RPMI-8226
[33] = tested on: SN12C
[34] = tested on: SF-539
[35] = tested on: KM-20L2
[36] = tested on: OVCAR-3
[37] = tested on: NCI-H23
[38] = tested on: DMS-114
[39] = tested on: NCI-H522
[40] = tested on: DMS-273
[41] = tested on: NCI-H460
[42] = tested on: KM12
[43] = tested on: LOX IMVI
[44] = tested on: DLD-1
[45] = tested on: M19-MEL
[46] = tested on: CCRF-CEM
[47] = tested on: HOP-18
[48] = tested on: Malme-3M
[49] = tested on: ACHN
[50] = tested on: HCT-15
[51] = tested on: UO-31
[52] = tested on: SK-MEL-2
[53] = tested on: UACC-257
[54] = tested on: SR
[55] = tested on: CAKI-1
[56] = tested on: OVCAR-5
[57] = tested on: A498

Cc1cc2c(cc1C)N1Cc3c(ccc(C)c3C)N(C2)C1.Cc1cc2c(cc1C)N1Cc3cc(C)c(C)cc3N(C2)C1
GI50 [1]: > 100 µM (inactive) | GI50 [2]: > 100 µM (inactive) | GI50 [3]: > 100 µM (inactive) | GI50 [4]: > 100 µM (inactive) | GI50 [5]: > 100 µM (inactive) | GI50 [6]: > 100 µM (inactive) | GI50 [7]: > 100 µM (inactive) | GI50 [8]: 89.5 µM (inactive) | GI50 [9]: 35.2 µM (inactive) | GI50 [10]: 70.8 µM (inactive) | GI50 [11]: > 100 µM (inactive) | GI50 [12]: > 100 µM (inactive) | GI50 [13]: > 100 µM (inactive) | GI50 [14]: > 100 µM (inactive) | GI50 [15]: > 100 µM (inactive) | GI50 [16]: > 100 µM (inactive) | GI50 [17]: > 100 µM (inactive) | GI50 [18]: 35.6 µM (inactive) | GI50 [19]: > 100 µM (inactive) | GI50 [20]: > 100 µM (inactive) | GI50 [21]: > 100 µM (inactive) | GI50 [22]: > 100 µM (inactive) | GI50 [23]: > 100 µM (inactive) | GI50 [24]: > 100 µM (inactive) | GI50 [25]: > 100 µM (inactive) | GI50 [26]: > 100 µM (inactive) | GI50 [27]: > 100 µM (inactive) | GI50 [28]: > 100 µM (inactive) | GI50 [29]: > 100 µM (inactive) | GI50 [30]: > 100 µM (inactive) | GI50 [31]: 74.5 µM (inactive) | GI50 [32]: > 100 µM (inactive) | GI50 [33]: 10 µM (inactive) | GI50 [34]: > 100 µM (inactive) | GI50 [35]: 52 µM (inactive) | GI50 [36]: > 100 µM (inactive) | GI50 [37]: 92.5 µM (inactive) | GI50 [38]: > 100 µM (inactive) | GI50 [39]: 53.6 µM (inactive) | GI50 [40]: > 100 µM (inactive) | GI50 [41]: > 100 µM (inactive) | GI50 [42]: > 100 µM (inactive) | GI50 [43]: 86.7 µM (inactive) | GI50 [44]: > 100 µM (inactive) | GI50 [45]: > 100 µM (inactive) | GI50 [46]: > 100 µM (inactive) | GI50 [47]: > 100 µM (inactive)

O=C(CSc1nnc(-c2ccc(/N=C\c3ccc(Cl)cc3)cc2)o1)Nc1ccccc1Cl
GI50 [48]: > 100 µM (inactive) | GI50 [1]: > 100 µM (inactive) | GI50 [2]: > 100 µM (inactive) | GI50 [3]: > 100 µM (inactive) | GI50 [4]: > 100 µM (inactive) | GI50 [6]: > 100 µM (inactive) | GI50 [7]: 60.8 µM (inactive) | GI50 [8]: > 100 µM (inactive) | GI50 [9]: > 100 µM (inactive) | GI50 [10]: > 100 µM (inactive) | GI50 [11]: > 100 µM (inactive) | GI50 [12]: > 100 µM (inactive) | GI50 [13]: > 100 µM (inactive) | GI50 [14]: > 100 µM (inactive) | GI50 [15]: > 100 µM (inactive) | GI50 [16]: > 100 µM (inactive) | GI50 [17]: > 100 µM (inactive) | GI50 [18]: > 100 µM (inactive) | GI50 [19]: > 100 µM (inactive) | GI50 [20]: > 100 µM (inactive) | GI50 [21]: > 100 µM (inactive) | GI50 [22]: > 100 µM (inactive) | GI50 [49]: > 100 µM (inactive) | GI50 [23]: > 100 µM (inactive) | GI50 [24]: > 100 µM (inactive) | GI50 [50]: > 100 µM | GI50 [51]: > 100 µM (inactive) | GI50 [25]: > 100 µM (inactive) | GI50 [26]: > 100 µM (inactive) | GI50 [27]: > 100 µM (inactive) | GI50 [28]: > 100 µM (inactive) | GI50 [29]: > 100 µM (inactive) | GI50 [31]: > 100 µM (inactive) | GI50 [32]: > 100 µM (inactive) | GI50 [33]: > 10 µM (inactive) | GI50 [35]: > 100 µM (inactive) | GI50 [52]: > 100 µM (inactive) | GI50 [37]: > 100 µM (inactive) | GI50 [38]: > 100 µM (inactive) | GI50 [39]: > 100 µM (inactive) | GI50 [53]: 20.7 µM (inactive) | GI50 [40]: > 100 µM (inactive) | GI50 [41]: > 100 µM (inactive) | GI50 [42]: > 100 µM (inactive) | GI50 [43]: > 100 µM (inactive) | GI50 [45]: > 100 µM (inactive) | GI50 [46]: > 100 µM (inactive) | GI50 [47]: > 100 µM (inactive) | GI50 [54]: > 100 µM (inactive)

NC(=O)NNC/C(Cl)=C(\Cl)C(=O)O
GI50 [48]: > 100 µM (inactive) | GI50 [1]: > 100 µM (inactive) | GI50 [2]: > 100 µM (inactive) | GI50 [3]: > 100 µM (inactive) | GI50 [4]: > 100 µM (inactive) | GI50 [5]: > 100 µM (inactive) | GI50 [6]: > 100 µM (inactive) | GI50 [7]: > 100 µM (inactive) | GI50 [8]: > 100 µM (inactive) | GI50 [55]: > 100 µM (inactive) | GI50 [9]: > 100 µM (inactive) | GI50 [10]: > 100 µM (inactive) | GI50 [11]: > 100 µM (inactive) | GI50 [12]: > 100 µM (inactive) | GI50 [13]: > 100 µM (inactive) | GI50 [14]: > 100 µM (inactive) | GI50 [15]: > 100 µM (inactive) | GI50 [16]: > 100 µM (inactive) | GI50 [56]: > 100 µM (inactive) | GI50 [17]: > 100 µM (inactive) | GI50 [19]: > 100 µM (inactive) | GI50 [20]: > 100 µM (inactive) | GI50 [21]: > 100 µM (inactive) | GI50 [22]: > 100 µM (inactive) | GI50 [49]: > 100 µM (inactive) | GI50 [23]: > 100 µM (inactive) | GI50 [24]: > 100 µM (inactive) | GI50 [57]: > 100 µM (inactive) | GI50 [50]: > 100 µM | GI50 [51]: > 100 µM (inactive) | GI50 [25]: > 100 µM (inactive) | GI50 [26]: < 0.01 µM (active) | GI50 [27]: > 100 µM (inactive) | GI50 [28]: > 100 µM (inactive) | GI50 [29]: > 50 µM (inactive) | GI50 [30]: > 100 µM (inactive) | GI50 [31]: > 100 µM (inactive) | GI50 [32]: > 100 µM (inactive) | GI50 [33]: > 100 µM (inactive) | GI50 [34]: > 100 µM (inactive) | GI50 [35]: > 100 µM (inactive) | GI50 [52]: > 100 µM (inactive) | GI50 [36]: > 100 µM (inactive) | GI50 [37]: > 100 µM (inactive) | GI50 [38]: > 100 µM (inactive) | GI50 [39]: > 100 µM (inactive) | GI50 [53]: > 82.6 µM (inactive) | GI50 [40]: > 100 µM (inactive) | GI50 [41]: > 100 µM (inactive) | GI50 [42]: > 100 µM (inactive) | GI50 [43]: > 100 µM (inactive) | GI50 [44]: > 100 µM (inactive) | GI50 [45]: > 100 µM (inactive) | GI50 [46]: > 100 µM (inactive) | GI50 [47]: > 100 µM (inactive)
